Here are results for one compound from patent US20220281846A1, “COMPOUNDS AND COMPOSITIONS FOR THE TREATMENT OF RESPIRATORY DISEASES” (THE UNIVERSITY OF MELBOURNE, priority 2018, published 2022).

The target of series [1] is T1, human recombinant Casein kinase 18 (CK1δ) (Homo sapiens, UniProt P48730).
T1 construct: purchased Reaction Biology Corp
Nature of the series: Kinase inhibition assay (HotSpot, Reaction Biology Corp), CK1δ. It counts as biochemical. The note with it: 10 μM ATP, 10-dose IC50 mode.

Series [2] has as its system TGF-β-induced IL-11 in primary human parenchymal fibroblast cells (pFbs). Nature of the series: Human parenchymal fibroblast cell assay, TGF-β-induced IL-11 (ELISA). The class given is cell-based. The settings on record: compounds 0.1-10 μM 30 min prior to TGF-β1, 16-24 hours, 4.00* is assigned to compounds that failed to cause 50% or more inhibition at 10 µM, read-out: pIC50 IL-11 suppression (converted). As to the method:
Human Parenchymal Fibroblast Cell Assay
Primary human parenchymal fibroblast cells (pFbs) were cultured from parenchyma of lung resection specimens and from non-transplanted lungs of donors without chronic respiratory disease. pFbs were passaged in Dulbecco's Modified Eagle's Media (DMEM) containing 10% (v/v) heat-inactivated fetal calf serum (FCS), 15 mM HEPES, 0.2% (v/v) sodium bicarbonate, 2 mM L-glutamine, 1% (v/v) non-essential amino acids, 1% (v/v) sodium pyruvate, 2.5 μg/mL amphotericin, 5 IU/mL penicillin and 50 μg/mL streptomycin. In some experiments the human lung fibroblast cell line, MRC5 (sourced from ATTC) was used as indicated. The MRC5 line was maintained under the same conditions as described for the pFb.
Prior to experimentation, pFb were incubated in serum-free DMEM containing 0.25% bovine serum albumin (BSA) and insulin-transferrin-selenium-containing supplement (Monomed A; CSL, Parkville, Melbourne, Australia). The cells were incubated with small molecular CK1δ inhibitors (0.1-10 μM) for 30 min prior to […] TGF-β1 (R&D Systems, Minneapolis, Minn.) and the incubation continued for 16-24 hours prior to harvest of supernatant for detection of immunoreactive IL-11. Stock solutions were made as 10 mM in 100% DMSO and diluted to the required concentration in medium containing 0.1% DMSO (final concentration).
Supernatants were collected for measurement of IL-11 (R&D DuoSet, DY218) by ELISA following the manufacturers' instructions. Generally, capture antibodies were initially diluted to the recommended concentrations using PBS buffer, and then used to coat the wells of 96-well microplates (Greiner, #655061) by adding 50 μL/well and incubated overnight at room temperature. Next day, solutions were discarded and wells were washed 3 times with wash buffer (PBS containing 0.1% (v/v) Tween-20) prior to the addition of 200 μL of blocking solution (PBS containing 1% (v/v) BSA) for 1 hour to block non-specific sites. Plates were then washed 3 times with wash buffer and 50 μL of samples or standards were then added to wells and incubated for 2 hours at room temperature. After the incubation, plates were washed 3 times with wash buffer and 50 μL of detection antibodies were added to wells and incubated for 2 hours at room temperature. Plates were then washed 3 times before adding streptavidin-conjugated horseradish peroxidase (at the recommended concentrations) for 45 min. Plates were then washed 5 times with wash buffer and 100 μL TMB substrate solution (equal parts A and B, BD Biosciences) was added to each well until sufficient signals emerged. The reactions were inactivated by adding 100 μL sulphuric acid (2M H2SO4). The absorbance was measured at 450 nm using the Multiskan Ascent® plate reader. The absorbance of the cytokine standards was fitted to a logistic equation, allowing the concentrations of cytokine in samples to be determined.
PIC50 values (the negative log of the concentration suppressing IL-11 level by 50%) for inhibition of TGF-β-induced IL-11 were interpolated from the linear regression of log concentration small molecule versus IL-11 level (Table 4 and FIG. 2).

Series [3] has as its system interleukin-1α (IL1α)-mediated cytokine production by the lung adenocarcinoma cell line A549. Nature of the series: Cellular assay (A549) against IL1α-mediated cytokine production. The class given is cell-based, human. The settings on record: serum starved A549 cells, compound 30 min prior to IL-1α (1 ng/ml) for 24 h, ELISA. As to the method:
Cellular Assay (A549 Human Lung Adenocarcinoma Cells) Assessing Effect of ZH3-138, ZH3-126 and PF670462 Against IL1α-Mediated Cytokine Production
The anti-inflammatory potential of selected compounds was examined by establishing the effects on interleukin-1α (IL1α)-mediated cytokine production by the lung adenocarcinoma cell line A549. Serum starved A549 cells were treated with various concentrations of the relevant CK1δ inhibitor (PF670462, ZH3-126 and ZH3-138) 30 min prior to IL-1α (1 ng/ml) for 24 h. Supernatant was collected and concentration of IL-6, IL-8 and GM-CSF was detected by ELISA. Data are presented as mean±SEM across three replicates in FIG. 7 (A: IL-6; B: IL-8 and C: GM-CSF).
(In general: ELISA stands for enzyme-linked immunosorbent assay.)

Series [4] has as its target T2, MINK/MINK1 (Homo sapiens, UniProt Q8N4C8).
T2 construct: purchased Reaction Biology Corp
Nature of the series: Kinase inhibition assay (HotSpot), MINK/MINK1. It counts as biochemical. The note with it: 10 μM ATP, 10-dose IC50 mode; read-out: Compound IC50 (M) MINK/MINK1.

In series [5] the target is T3, ERBB4/HER4 (Homo sapiens, UniProt Q15303).
T3 construct: purchased Reaction Biology Corp
As to the kind of experiment: Kinase inhibition assay (HotSpot), ERBB4/HER4. It counts as biochemical. The settings on record: 10 μM ATP, 10-dose IC50 mode; read-out: Compound IC50 (M) ERBB4/HER4.

The nature of series [6]: In vitro metabolic stability, human liver microsomes. The class given is in vitro ADME. The procedure:
Human Microsomal Stability of Compounds of the Invention
In Vitro Metabolic Stability
Incubation: The metabolic stability assay was performed by incubating each test compound in human liver microsomes at 37° C. and a protein concentration of 0.4 mg/mL. The metabolic reaction was initiated by the addition of an NADPH-regenerating system and quenched at various time points over a 60 minute incubation period by the addition of acetonitrile containing diazepam as internal standard. Control samples (containing no NADPH) were included (and quenched at 2, 30 and 60 minutes) to monitor for potential degradation in the absence of cofactor. The human liver microsomes used in this experiment were supplied by XenoTech, lot #1410230. Microsomal incubations were performed at a substrate concentration of 1 μM. Data analysis: Species scaling factors from Ring et al. (2011) JPharmSci, 100:4090-4110 were used to convert the in vitro CLint (μL/min/mg) to an in vivo CLint(mL/min/kg). Hepatic blood clearance and the corresponding hepatic extraction ratio (EH) were calculated using the well stirred model of hepatic extraction in each species, according to the “in vitro T1/2” approach described in Obach (1999) DrugMetab. Dispos. 27:1350-1359. The EH was then used to classify compounds as low(<0.3), intermediate (0.3-0.7), high (0.7-0.95) or very high (>0.95) extraction compounds. Predicted in vivo clearance values have not been corrected for microsomal or plasma protein binding. Species scaling calculations are based on two assumptions: 1) NADPH-dependent oxidative metabolism predominates over other metabolic routes (i.e. direct conjugative metabolism, reduction, hydrolysis, etc.), and; 2) rates of metabolism and enzyme activities in vitro are truly reflective of those that exist in vivo. If significant non-NADPH-mediated degradation is observed in microsome control samples, then assumption (1) is invalid and predicted clearance parameters are therefore not reported.

As usually defined, the microsomal CLint is the capacity of the preparation to metabolise the compound, expressed as a volume cleared per time. By half-life is commonly meant the time needed for the level to fall by half in the phase considered.

Each structure is given as a SMILES string. Where two headings read alike, the source gives them in different places.

T1 sequence (P48730 whole entry): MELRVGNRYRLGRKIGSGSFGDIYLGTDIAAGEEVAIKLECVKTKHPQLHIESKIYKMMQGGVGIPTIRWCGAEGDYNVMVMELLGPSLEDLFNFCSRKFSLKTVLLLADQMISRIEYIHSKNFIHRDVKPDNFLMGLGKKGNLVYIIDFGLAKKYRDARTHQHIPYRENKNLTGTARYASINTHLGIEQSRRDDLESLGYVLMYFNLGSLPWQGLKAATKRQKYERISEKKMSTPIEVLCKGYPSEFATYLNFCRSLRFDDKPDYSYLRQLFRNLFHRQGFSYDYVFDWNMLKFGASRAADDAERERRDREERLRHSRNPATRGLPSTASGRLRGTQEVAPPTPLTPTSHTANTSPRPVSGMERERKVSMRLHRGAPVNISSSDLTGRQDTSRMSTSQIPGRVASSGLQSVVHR
T2 sequence (Q8N4C8 whole entry): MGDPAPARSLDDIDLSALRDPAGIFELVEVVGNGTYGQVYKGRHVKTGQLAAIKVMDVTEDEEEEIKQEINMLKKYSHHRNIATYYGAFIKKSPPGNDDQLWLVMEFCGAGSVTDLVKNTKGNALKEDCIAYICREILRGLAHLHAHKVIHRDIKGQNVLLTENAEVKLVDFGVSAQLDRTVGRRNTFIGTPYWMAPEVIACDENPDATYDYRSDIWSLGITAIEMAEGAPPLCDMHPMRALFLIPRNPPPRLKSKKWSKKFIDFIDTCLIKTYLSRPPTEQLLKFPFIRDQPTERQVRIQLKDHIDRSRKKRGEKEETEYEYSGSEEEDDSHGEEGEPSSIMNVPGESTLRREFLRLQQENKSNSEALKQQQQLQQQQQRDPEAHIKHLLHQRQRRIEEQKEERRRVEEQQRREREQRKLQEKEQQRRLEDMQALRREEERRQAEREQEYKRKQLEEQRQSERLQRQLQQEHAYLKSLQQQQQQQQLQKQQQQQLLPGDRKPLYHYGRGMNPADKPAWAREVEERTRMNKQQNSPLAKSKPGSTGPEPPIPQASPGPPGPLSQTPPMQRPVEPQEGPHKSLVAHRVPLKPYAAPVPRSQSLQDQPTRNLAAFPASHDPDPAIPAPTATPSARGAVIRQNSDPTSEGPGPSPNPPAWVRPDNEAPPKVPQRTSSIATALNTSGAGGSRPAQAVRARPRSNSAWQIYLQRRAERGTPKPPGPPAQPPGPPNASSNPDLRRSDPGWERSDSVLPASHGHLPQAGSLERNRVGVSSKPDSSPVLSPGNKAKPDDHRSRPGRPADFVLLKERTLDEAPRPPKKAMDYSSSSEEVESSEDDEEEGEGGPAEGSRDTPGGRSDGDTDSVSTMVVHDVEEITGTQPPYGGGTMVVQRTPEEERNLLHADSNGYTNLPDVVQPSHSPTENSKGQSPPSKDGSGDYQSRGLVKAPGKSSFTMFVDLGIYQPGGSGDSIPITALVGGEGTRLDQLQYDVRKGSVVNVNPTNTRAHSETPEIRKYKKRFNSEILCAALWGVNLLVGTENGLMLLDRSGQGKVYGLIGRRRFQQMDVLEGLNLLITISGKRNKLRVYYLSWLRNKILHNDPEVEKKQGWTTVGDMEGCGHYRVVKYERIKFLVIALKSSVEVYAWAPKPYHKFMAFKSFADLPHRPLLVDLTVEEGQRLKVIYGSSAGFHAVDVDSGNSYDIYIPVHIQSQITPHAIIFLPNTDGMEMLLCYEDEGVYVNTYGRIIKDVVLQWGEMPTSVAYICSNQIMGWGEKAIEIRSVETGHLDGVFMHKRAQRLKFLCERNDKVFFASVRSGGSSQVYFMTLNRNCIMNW
T3 sequence (Q15303 26-1308): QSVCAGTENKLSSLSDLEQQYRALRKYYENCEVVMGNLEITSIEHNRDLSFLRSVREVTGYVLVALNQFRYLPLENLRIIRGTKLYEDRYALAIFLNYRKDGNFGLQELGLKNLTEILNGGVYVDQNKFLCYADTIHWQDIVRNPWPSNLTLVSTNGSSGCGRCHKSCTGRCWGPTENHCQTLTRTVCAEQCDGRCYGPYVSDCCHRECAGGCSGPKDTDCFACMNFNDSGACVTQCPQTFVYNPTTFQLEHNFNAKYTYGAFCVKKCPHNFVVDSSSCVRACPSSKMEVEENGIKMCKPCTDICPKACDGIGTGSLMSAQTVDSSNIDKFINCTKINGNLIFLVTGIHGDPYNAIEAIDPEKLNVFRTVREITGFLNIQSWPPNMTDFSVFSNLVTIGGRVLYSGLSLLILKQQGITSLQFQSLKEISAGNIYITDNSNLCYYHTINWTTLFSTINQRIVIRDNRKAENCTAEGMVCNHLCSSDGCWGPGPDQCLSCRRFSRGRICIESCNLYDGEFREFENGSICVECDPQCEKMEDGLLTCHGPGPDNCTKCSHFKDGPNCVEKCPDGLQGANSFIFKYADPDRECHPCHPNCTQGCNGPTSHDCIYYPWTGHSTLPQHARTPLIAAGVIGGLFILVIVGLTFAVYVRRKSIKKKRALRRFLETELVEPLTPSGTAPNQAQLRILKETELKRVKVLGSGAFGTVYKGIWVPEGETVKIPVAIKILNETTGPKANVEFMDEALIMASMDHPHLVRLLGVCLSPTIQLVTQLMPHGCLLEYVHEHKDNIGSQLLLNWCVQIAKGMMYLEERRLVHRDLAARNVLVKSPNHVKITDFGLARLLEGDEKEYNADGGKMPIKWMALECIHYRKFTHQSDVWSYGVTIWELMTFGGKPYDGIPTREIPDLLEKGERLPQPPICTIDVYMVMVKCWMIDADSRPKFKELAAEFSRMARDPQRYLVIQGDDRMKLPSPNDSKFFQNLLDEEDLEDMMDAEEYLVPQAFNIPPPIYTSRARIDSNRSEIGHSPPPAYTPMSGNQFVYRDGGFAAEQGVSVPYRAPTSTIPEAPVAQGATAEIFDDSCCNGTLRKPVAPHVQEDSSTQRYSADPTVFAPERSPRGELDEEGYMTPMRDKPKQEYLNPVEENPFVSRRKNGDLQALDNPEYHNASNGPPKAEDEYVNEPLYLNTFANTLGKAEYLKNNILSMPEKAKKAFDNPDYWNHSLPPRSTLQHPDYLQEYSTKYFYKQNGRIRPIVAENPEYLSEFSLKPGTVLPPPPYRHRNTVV

Regarding `CCn1cnc(-c2ccc(F)cc2)c1-c1ccnc(NCCO)n1` [ZH3-126, 2-((4-(1-Ethyl-4-(4-fluorophenyl)-1H-imidazol-5-yl)pyrimidin-2-yl)amino)ethan-1-ol], the IC50 in series [1] (read-out: Compound IC50 (M) CK1δ) is 6.38e-10 M; in series [1] (casein kinase 1δ, read-out: pIC50 (converted)), 6.46e-10 M; in series [2], 1860 nM; in series [4] it was 1.99e-07 M; in series [5], 9.52e-06 M. Moreover, the “supernatant concentrations of inflammatory biomarkers (IL-6, IL-8, GM-CSF)” value in series [3] was “ability to reduce supernatant concentrations of other inflammatory biomarkers”. The “Predicted EH (hepatic extraction ratio)” value in series [6] (human liver microsomes) is 0.22. Further, the intrinsic clearance (microsomal CLint) at 1 μM in series [6] (human liver microsomes, 1 μM) was 7 µL/min/mg. The half-life at 1 μM in series [6] (human liver microsomes, 1 μM, 0.4 mg/mL protein, 37° C.) came out at 4.03 h. The “Predicted CLblood” value in series [6] (scaled from human liver microsomes, well stirred model) is recorded as 5 mL/min/kg. Moreover, in series [6] (scaled from human liver microsomes, read-out: Predicted CLint, in vivo), the CLint scaled at 1 μM is 6 mL/min/kg.
